Assay results as given in US20130131161A1, “METHODS AND COMPOSITIONS FOR CARDIOVASCULAR DISEASES AND CONDITIONS” (priority 2009, published 2013).

System: Human umbilical vein endothelial cells (HUVECs)
Experiment: eNOS activity analysis: NO, ONOO− and NO/ONOO− release from HUVECs of 50 genotyped donors in response to LA-419 (Example 2)
Assay type: cell-based
Conditions: for Fold difference NO (mean ± sd) / Fold difference NO/ONOO− (mean ± sd) / Fold difference ONOO− (mean ± sd): (LA-419 1 μM)/(control)
Experimental: Concurrent measurements of NO and ONOO^− were carried out with tandem electrochemical nanosensors combined into one working unit with a total diameter of 200-500 nm (FIG. 1). Their design was based on previously developed and well-characterized chemically modified carbon-fiber technology (Malinski and Taha, 1992; Lvovich and Scheeline, 1997). Each of the nanosensors was made by depositing a sensing material on the tip of a carbon fiber (length 4-5 μm, diameter 0.2-0.5 μm). The fibers were sealed with nonconductive epoxy and electrically connected to copper wires with conductive silver epoxy. A conductive film of polymeric nickel (II) tetrakis(3-methoxy-4-hydroxyphenyl)porphyrin for the NO-sensor and polymeric film of Mn (III) [2.2]paracyclophanylporphyrin was used for the ONOO^−-sensor.
A module of NO/ONOO^− nanosensors (diameter 1-2 μm) with a platinum wire (0.1 mm) counter electrode and saturated calomel reference electrode (SCE) were applied. Differential pulse voltammetry (DPV) and amperometry were performed with a computer-based Gamry VFP600 multichannel potentiostat. DPV was used to measure the basal NO and ONOO^− concentrations, and amperometry was used to measure changes in NO and ONOO^− concentrations from its basal level with time. The DPV current at the peak potential characteristic for NO oxidation (0.65 V) and ONOO^− reduction (−0.45 V) was directly proportional to the local concentrations of these compounds in the immediate vicinity of the sensor. Linear calibration curves (current vs. concentration) were constructed for each sensor from 10 nM to 3 μM before and after measurements with aliquots of NO and ONOO^− standard solutions, respectively. The detection limit of the sensors was 1.0 nM.
The quantification of each analyte (concentration in nM) was performed using a maximum current from amperograms and standard calibration curves. A reproducibility of measurements with nanosensors is relatively high (between 5-12%). […] The sensors were slowly raised 5±2 μm from the surface of a single endothelial cell. The eNOS agonist, calcium ionophore A23187 (CaI) as well as the different drugs were then added to the surrounding media at the cell surface with a nanoinjector that was also positioned by a computer controlled-micromanipulator.
This example describes the genotype-specific response of the three major eNOS variants to 1 μM and 5 μM concentrations of LA-419. The three major genetic polymorphisms studied were the Glu298Asp variant (E298D or 894G→T) in exon 7 of […], the −786T→C variant in the promoter region, and the intron 4 polymorphism (VNTR). All of these variants have possible effects on the cardiovascular system and endothelial dysfunction. For this study, human umbilical vein endothelial cells (HUVECs) from 50 donors between 18 and 32 years of age were used.
For the analysis several analysis techniques were employed. First, the effect of genotype on NO and ONOO^− release was explored within the different concentrations of LA-419 (control, 1 μM, 5 μM), calculated as the average peak release (nmols/L) of NO, ONOO^−, and NO/ONOO^−. The effect of genotype on the net increase in NO, ONOO^−, and NO/ONOO^− for LA-419 (1 μM and 5 μM) as compared to control was also measured. In addition, an analysis was done on the effect of genotype on the % change in NO, ONOO^−, and NO/ONOO^− production for LA-419 (1 μM and 5 μM), calculated as:
% Change=[(avg. LA-419−avg. control)/(avg. control)]*100
Finally, an evaluation was undertaken concerning the effect of genotype on the production of NO, ONOO^−, and NO/ONOO^− as the fold difference of control for LA-419 (1 μM and 5 μM), calculated as:
Fold Difference=(avg. LA-419)/(avg. control)
Within each calculation technique the results were compared for statistical significance using a non-parametric ANOVA Kruskal-Wallace test or a non-parametric Mann-Whitney U test. Statistical significance was set at a p-value <0.05 in a two-tailed distribution. […]

[1] = 1 μM LA-419, Intron 4 variant b/a, a/a, c/c (n=14)
[2] = 1 μM LA-419, Intron 4 variant b/b (n=31)
[3] = 5 μM LA-419, Intron 4 variant b/a, a/a, c/c (n=14)
[4] = 5 μM LA-419, Intron 4 variant b/b (n=31)
[5] = Combination of all G894T + T-786C genotypes but G/G + T/T, n=31
[6] = Combination of all G894T + T-786C genotypes but T/T + C/C, n=46

CC(=O)SC1COC2C(O[N+](=O)[O-])COC12 (stereo not drawn) [LA-419, S-(6-Nitro-oxi-hexahydro-furo[3,2-b]furan-3-1-il)thioacetate]
NO % Change (mean ± sd) [1]: 11.76 (29.57) %
NO/ONOO− % Change (mean ± sd) [1]: 28.01 (62.22) %
ONOO− % Change (mean ± sd) [1]: −2.68 (29.78) %
NO % Change (mean ± sd) [2]: 13.46 (23.13) %
NO/ONOO− % Change (mean ± sd) [2]: 43.27 (71.09) %
ONOO− % Change (mean ± sd) [2]: −10.24 (27.17) %
NO % Change (mean ± sd) [3]: 16.16 (6.09) %
NO/ONOO− % Change (mean ± sd) [3]: 44.37 (12.85) %
ONOO− % Change (mean ± sd) [3]: −19.27 (5.27) %
NO % Change (mean ± sd) [4]: 13.52 (6.80) %
NO/ONOO− % Change (mean ± sd) [4]: 42.24 (17.73) %
ONOO− % Change (mean ± sd) [4]: −19.19 (7.76) %
Fold difference NO (mean ± sd) [5]: 1.14 (0.26)
Fold difference NO/ONOO− (mean ± sd) [5]: 1.41 (0.71)
Fold difference ONOO− (mean ± sd) [5]: 0.92 (0.30)
Fold difference NO (mean ± sd) [6]: 1.13 (0.25)
Fold difference NO/ONOO− (mean ± sd) [6]: 1.37 (0.68)
Fold difference ONOO− (mean ± sd) [6]: 0.93 (0.28)
Fold difference NO (mean ± sd) (G894T + T-786C G/G + T/C, n=8): 1.03 (0.17)
Fold difference NO/ONOO− (mean ± sd) (G894T + T-786C G/G + T/C, n=8): 1.07 (0.37)
Fold difference ONOO− (mean ± sd) (G894T + T-786C G/G + T/C, n=8): 1.07 (0.36)
Fold difference NO (mean ± sd) (G894T + T-786C G/G + T/T, n=18): 1.10 (0.20)
Fold difference NO/ONOO− (mean ± sd) (G894T + T-786C G/G + T/T, n=18): 1.28 (0.57)
Fold difference ONOO− (mean ± sd) (G894T + T-786C G/G + T/T, n=18): 0.94 (0.23)
Fold difference NO (mean ± sd) (G894T + T-786C G/T + C/C, n=1): 0.86 (0)
Fold difference NO/ONOO− (mean ± sd) (G894T + T-786C G/T + C/C, n=1): 0.49 (0)
Fold difference ONOO− (mean ± sd) (G894T + T-786C G/T + C/C, n=1): 1.77 (0)
Fold difference NO (mean ± sd) (G894T + T-786C G/T + T/C, n=13): 1.28 (0.33)
Fold difference NO/ONOO− (mean ± sd) (G894T + T-786C G/T + T/C, n=13): 1.70 (0.81)
Fold difference ONOO− (mean ± sd) (G894T + T-786C G/T + T/C, n=13): 0.81 (0.15)
Fold difference NO (mean ± sd) (G894T + T-786C G/T + T/T, n=4): 1.08 (0.03)
Fold difference NO/ONOO− (mean ± sd) (G894T + T-786C G/T + T/T, n=4): 1.12 (0.18)
Fold difference ONOO− (mean ± sd) (G894T + T-786C G/T + T/T, n=4): 0.98 (0.18)
Fold difference NO (mean ± sd) (G894T + T-786C T/T + C/C, n=1): 1.02 (0)
Fold difference NO/ONOO− (mean ± sd) (G894T + T-786C T/T + C/C, n=1): 1.23 (0)
Fold difference ONOO− (mean ± sd) (G894T + T-786C T/T + C/C, n=1): 0.83 (0)
Fold difference NO (mean ± sd) (G894T + T-786C T/T + C/C, n=3): 1.07 (0.06)
Fold difference NO/ONOO− (mean ± sd) (G894T + T-786C T/T + C/C, n=3): 1.20 (0.04)
Fold difference ONOO− (mean ± sd) (G894T + T-786C T/T + C/C, n=3): 0.89 (0.06)
Fold difference NO (mean ± sd) (G894T + T-786C T/T + T/C, n=2): 1.11 (0.36)
Fold difference NO/ONOO− (mean ± sd) (G894T + T-786C T/T + T/C, n=2): 2.25 (1.17)
Fold difference ONOO− (mean ± sd) (G894T + T-786C T/T + T/C, n=2): 0.52 (0.11)
Fold difference NO (mean ± sd) (G894T G/G & G/T, n=44): 1.13 (0.25)
Fold difference NO/ONOO− (mean ± sd) (G894T G/G & G/T, n=44): 1.34 (0.64)
Fold difference ONOO− (mean ± sd) (G894T G/G & G/T, n=44): 0.95 (0.27)
Fold difference NO (mean ± sd) (G894T G/G, n=26): 1.08 (0.19)
Fold difference NO/ONOO− (mean ± sd) (G894T G/G, n=26): 1.22 (0.52)
Fold difference ONOO− (mean ± sd) (G894T G/G, n=26): 0.98 (0.27)
Fold difference NO (mean ± sd) (G894T G/T & T/T, n=23): 1.18 (0.28)
Fold difference NO/ONOO− (mean ± sd) (G894T G/T & T/T, n=23): 1.53 (0.77)
Fold difference ONOO− (mean ± sd) (G894T G/T & T/T, n=23): 0.87 (0.26)
Fold difference NO (mean ± sd) (G894T G/T, n=18): 1.21 (0.30)
Fold difference NO/ONOO− (mean ± sd) (G894T G/T, n=18): 1.50 (0.77)
Fold difference ONOO− (mean ± sd) (G894T G/T, n=18): 0.90 (0.27)
Fold difference NO/ONOO− (mean ± sd) (G894T T/T, n=5): 1.62 (0.82)
Fold difference ONOO− (mean ± sd) (G894T T/T, n=5): 0.75 (0.21)
Fold difference NO (mean ± sd) (Intron 4 a/a, n=1): 1.09 (0)
Fold difference NO/ONOO− (mean ± sd) (Intron 4 a/a, n=1): 1.23 (0)
Fold difference ONOO− (mean ± sd) (Intron 4 a/a, n=1): 0.89 (0)
Fold difference NO (mean ± sd) (Intron 4 a/a, n=3): 0.95 (0.25)
Fold difference NO/ONOO− (mean ± sd) (Intron 4 a/a, n=3): 0.96 (0.45)
Fold difference ONOO− (mean ± sd) (Intron 4 a/a, n=3): 1.10 (0.34)
Fold difference NO (mean ± sd) (Intron 4 b/a, a/a, c/c, n=14): 1.13 (0.23)
Fold difference NO/ONOO− (mean ± sd) (Intron 4 b/a, a/a, c/c, n=14): 1.28 (0.62)
Fold difference ONOO− (mean ± sd) (Intron 4 b/a, a/a, c/c, n=14): 0.97 (0.30)
Fold difference NO (mean ± sd) (Intron 4 b/a, n=10): 1.21 (0.28)
Fold difference NO/ONOO− (mean ± sd) (Intron 4 b/a, n=10): 1.43 (0.65)
Fold difference ONOO− (mean ± sd) (Intron 4 b/a, n=10): 0.93 (0.31)
Fold difference NO (mean ± sd) (Intron 4 b/b, b/a, c/c, n=42): 0.95 (0.25)
Fold difference NO/ONOO− (mean ± sd) (Intron 4 b/b, b/a, c/c, n=42): 1.42 (0.69)
Fold difference ONOO− (mean ± sd) (Intron 4 b/b, b/a, c/c, n=42): 0.91 (0.27)
Fold difference NO (mean ± sd) (Intron 4 b/b, n=31): 1.13 (0.23)
Fold difference NO/ONOO− (mean ± sd) (Intron 4 b/b, n=31): 1.43 (0.71)
Fold difference ONOO− (mean ± sd) (Intron 4 b/b, n=31): 0.90 (0.27)
Fold difference NO (mean ± sd) (Intron 4 c/c, n=1): 0.73 (0)
Fold difference NO/ONOO− (mean ± sd) (Intron 4 c/c, n=1): 0.74 (0)
Fold difference ONOO− (mean ± sd) (Intron 4 c/c, n=1): 0.99 (0)
Fold difference NO (mean ± sd) (T-786C C/C, n=1): 1.02 (0)
Fold difference NO/ONOO− (mean ± sd) (T-786C C/C, n=1): 1.23 (0)
Fold difference ONOO− (mean ± sd) (T-786C C/C, n=1): 0.83 (0)
Fold difference NO (mean ± sd) (T-786C C/C, n=4): 1.02 (0.12)
Fold difference NO/ONOO− (mean ± sd) (T-786C C/C, n=4): 1.03 (0.36)
